Values of other authors as cited in patent EP1935397A1, “Oral and tooth care and cleaning agents for combating halitosis” (Henkel AG & Co. KGaA, priority 2006, dated 2008).

Conditions: 20°C
For Zinkacetat-Dihydrat, the Löslichkeit is listed as 430 g/l (20°C).
In the case of Zinkgluconat, the Löslichkeit is given as 100 g/l (20°C).
For Zinkiodid, the Löslichkeit is listed as 4500 g/l (20°C).
For Zinknitrat Hexahydrat, the Löslichkeit is given as 1843 g/l (20°C).
For Zinkstearat, the Löslichkeit is given as 0,9 mg/l (20°C).
For Zinksulfat-Heptahydat, the Löslichkeit is given as 960 g/l (20°C).
For Zinksulfat-Monohydrat, the Löslichkeit is listed as ~350 g/l (20°C).

Same assay, conditions: 20°C; result in words
For Zinkhydroxycarbonat, the Löslichkeit is listed as “Fast unlöslich (20°C)”.
In the case of Zinknitrat-Tetrahydrat, the Löslichkeit is given as “Leicht löslich (20°C)”.

Same assay, conditions: 25°C
In the case of Zinkbromid, the Löslichkeit is given as 820 g/l (25°C).
In the case of Zinkchlorid, the Löslichkeit is given as 4320 g/l (25°C).

Same assay, conditions: temperature not given; result in words
In the case of `[O-2].[Zn+2]` [Zinkoxid], the Löslichkeit is listed as “Unlöslich”.
